Data set [1] is described as follows: Half life in rat liver microsomes. Type of data set: ADME, Microsome.
Data set [2] can be described thus: Half life in Swiss Webster mouse at 2 mg/kg, iv. Particulars: in vivo. It counts as ADME, organism-based. Also on record: dose 2 mg/kg, route intravenous.
Data set [3] can be described thus: Clearance in Sprague-Dawley rat at 2 mg/kg, iv. Type of data set: ADME, organism-based. Also on record: dose 2 mg/kg, route intravenous. Particulars: in vivo.
The nature of data set [4]: Cmax in Sprague-Dawley brain rat at 10 mg/kg, po. It counts as ADME, organism-based. Further details: dose 10 mg/kg, route oral.
Data set [5] can be described thus: Ratio of drug level in brain to plasma in Swiss Webster mouse at 10 mg/kg, po. Type of data set: ADME, organism-based. Further details: dose 10 mg/kg, route oral.
Data set [6] can be described thus: Half life in Sprague-Dawley rat at 2 mg/kg, iv. Type of data set: ADME, organism-based. Also on record: dose 2 mg/kg, route intravenous. Particulars: in vivo.
A short description of data set [7]: AUClast in Sprague-Dawley rat at 10 mg/kg, po. Further details: time 0 - last, dose 10 mg/kg, route oral. It counts as ADME, organism-based. Particulars: plasma.
Data set [8] can be described thus: Clearance in Swiss Webster mouse at 2 mg/kg, iv. It counts as ADME, organism-based. Further details: dose 2 mg/kg, route intravenous. Particulars: in vivo.
Data set [9] is described as follows: Cmax in Swiss Webster mouse brain at 10 mg/kg, po. It counts as ADME, organism-based. Further details: dose 10 mg/kg, route oral.
The nature of data set [10]: Oral bioavailability in Swiss Webster mouse at 10 mg/kg. Particulars: in vivo. It counts as ADME, organism-based.
The nature of data set [11]: Volume of distribution at steady state in Sprague-Dawley rat at 2 mg/kg, iv. Type of data set: ADME, organism-based. Also on record: dose 2 mg/kg, route intravenous. Particulars: in vivo, read-out: Vdss.
A short description of data set [12]: Cmax in Sprague-Dawley rat at 10 mg/kg, po. Particulars: in vivo. Type of data set: ADME, organism-based. Further details: dose 10 mg/kg, route oral.
Data set [13] can be described thus: Half life in Beagle dog at 2 mg/kg, iv. Type of data set: ADME, organism-based, Canis lupus familiaris. Also on record: dose 2 mg/kg, route intravenous. Particulars: in vivo.
Data set [14] is described as follows: Oral bioavailability in Sprague-Dawley rat at 10 mg/kg. Type of data set: ADME, organism-based. Particulars: in vivo.
Data set [15] in a line: Cmax in Beagle dog at 10 mg/kg, po. Particulars: in vivo. Type of data set: ADME, organism-based, Canis lupus familiaris. Further details: dose 10 mg/kg, route oral.
Data set [16] can be described thus: Cmax in Swiss Webster mouse at 10 mg/kg, po. Particulars: in vivo. It counts as ADME, organism-based. Also on record: dose 10 mg/kg, route oral.
Data set [17] in a line: Volume of distribution at steady state in Beagle dog at 2 mg/kg, iv. It counts as ADME, organism-based, Canis lupus familiaris. Further details: dose 2 mg/kg, route intravenous. Particulars: in vivo, read-out: Vdss.
Data set [18] is described as follows: Oral bioavailability in Beagle dog at 10 mg/kg. Type of data set: ADME, organism-based, Canis lupus familiaris. Particulars: in vivo.
Data set [19] in a line: Ratio of drug level in brain to plasma in Sprague-Dawley rat at 10 mg/kg, po. It counts as ADME, organism-based. Further details: dose 10 mg/kg, route oral.
The nature of data set [20]: AUClast in Beagle dog at 10 mg/kg, po. Type of data set: ADME, organism-based, Canis lupus familiaris. Further details: time 0 - last, dose 10 mg/kg, route oral. Particulars: plasma.
Data set [21] is described as follows: Clearance in Beagle dog at 2 mg/kg, iv. It counts as ADME, organism-based, Canis lupus familiaris. Also on record: dose 2 mg/kg, route intravenous. Particulars: in vivo.
Data set [22] is described as follows: AUClast in Swiss Webster mouse at 10 mg/kg, po. Type of data set: ADME, organism-based. Further details: time 0 - last, dose 10 mg/kg, route oral. Particulars: plasma.
Data set [23] in a line: Volume of distribution at steady state in Swiss Webster mouse at 2 mg/kg, iv. It counts as ADME, organism-based. Further details: dose 2 mg/kg, route intravenous. Particulars: in vivo, read-out: Vdss.

As to `O=C(c1cccc(C#Cc2ccccc2)c1)N1CCN(c2ccccn2)CC1`, the half-life (commonly the time needed for the level to fall by half in the phase considered) in [1] is 3 min.
On to `COc1cccc(C#Cc2cccc(C(=O)N3CCN(c4ccccn4)CC3)c2)c1`, for which the half-life in data set [1] came out at 3 min.
In the case of `Nc1cccc(C#Cc2cccc(C(=O)N3CCN(c4ccccn4)CC3)c2)c1`, the half-life in data set [1] was determined as 2 min.
Take `COc1ccc(C#Cc2cccc(C(=O)N3CCN(c4ccccn4)CC3)c2)cc1`: the half-life in data set [1] was determined as 4 min.
`Cc1ccc(C#Cc2cccc(C(=O)N3CCN(c4ccccn4)CC3)c2)cc1`: in [1], the half-life amounted to 5 min.
On the same count and under the same terms, the figure for `O=C(c1cccc(C#CCc2ccccc2)c1)N1CCN(c2ccccn2)CC1` is 4 min; for `O=C(c1cccc(C#Cc2ccccn2)c1)N1CCN(c2ccccn2)CC1` it is 5 min; for `O=C(c1cccc(C#Cc2ccccc2)c1)N1CCN(c2cnccn2)CC1` it is 4 min.
As to `O=C(c1cccc(C#Cc2ccccc2)c1)N1CCN(c2ccncn2)CC1`, the half-life in [1] was 3 min.
Still for that read-out and setting: the same measure for `Cc1ccc(N2CCN(C(=O)c3cccc(C#Cc4ccccc4)c3)CC2)nc1`: 13 min; for `COc1ccc(C(=O)N2CCN(c3ccccn3)CC2)cc1C#Cc1ccccc1`: 13 min; for `COc1ccc(C(=O)N2CCN(c3cnccn3)CC2)cc1C#Cc1ccccc1`: 5 min.
Same read-out and setting: the figure for `COc1ccc(C(=O)N2CCN(c3ccncn3)CC2)cc1C#Cc1ccccc1` is 21 min.
On the same count and under the same terms, the same measure for `COc1ccc(C(=O)N2CCN(c3ccc(C)cn3)CC2)cc1C#Cc1ccccc1`: 16 min; for `Cc1ccc(C(=O)N2CCN(c3ccccn3)CC2)cc1C#Cc1ccccc1`: 13 min.
For `Cc1ccc(C(=O)N2CCN(c3cnccn3)CC2)cc1C#Cc1ccccc1`, in data set [1], the half-life was determined as 9 min.
The same measure, in the same setting: the same measure for `COc1ccc(C(=O)N2CCN(c3ccncn3)CC2)cc1C#Cc1cccc(Cl)c1`: 7 min.
With `COc1ccc(C(=O)N2CCN(c3ccccn3)CC2)cc1C#Cc1ccccn1`, the half-life in data set [2] is 12 min; in data set [6], 60 min; in [1], 23 min; in [13] it was 126 min. Besides, the clearance (commonly the rate of elimination divided by the concentration) in data set [3] came out at 12 mL/min/kg; in data set [8], 121 mL/min/kg; in data set [21], 3 mL/min/kg. For the same compound, the Cmax (as a rule, the highest concentration seen after dosing) in [4] is 1.79 µM; in data set [9] it was 1.09 µM; in data set [12], 11.9 µM; in data set [15], 16.4 µM; in data set [16], 3.5 µM. Also, the values for the Kp in [5] and in data set [19] were 0.31 and 0.15, respectively. Also, the AUC(0-t) (as a rule, exposure summed from dosing to a finite time, without extrapolation to infinity) in data set [7] came out at 13400 ng·h/mL; in data set [20] it was 47100 ng·h/mL; in [22], 519 ng·h/mL. The bioavailability – broadly, the share of a dose that reaches the circulation, judged against a reference dose that is usually intravenous – in data set [10] turned out to be 20%; in data set [14] it was 85%; in [18], 80%. The Vd in [11] came out at 0.9 L/kg; in data set [17], 0.5 L/kg; in data set [23], 3.2 L/kg.
`COc1ccc(C(=O)N2CCN(c3ccncn3)CC2)cc1C#Cc1ccccn1` registered a half-life in data set [1] of 18 min.
For the compound `COc1ccc(C(=O)N2CCN(c3ccccn3)CC2)cc1C#Cc1cccc(C)n1`, the half-life in data set [1] was determined as 11 min.
On the same count and under the same terms, the figure for `COc1ccc(C(=O)N2CCN(c3ccccn3)CC2)cc1C#Cc1nccs1` is 15 min; for `COc1ccc(C(=O)N2CCN(c3ccc(C)cn3)CC2)cc1C#Cc1ccccn1` it is > 30 min.

Values taken from ChEMBL document CHEMBL1641557, “3-(Pyridin-2-yl-ethynyl)benzamide metabotropic glutamate receptor 5 negative allosteric modulators: hit to lead studies” (Bioorg Med Chem Lett, 2011).
